The text below walks through data of patent US20110172297A1, “Oxopiperdinyl And Pyranyl Sulfonamides and Pharmaceutical Compositions Thereof” (Pfizer Inc, priority 2008, published 2011).

The assay relates to AMPA receptors. The assay is described as follows: AMPA ES cell FLIPR screen (AMPA Potentiator Assay). Type of assay: cell-based. The settings on record: murine ES cell-derived neurons, FLIPR Fluo-4 calcium signal, 32 uM AMPA challenge; values marked * are the geometric mean of 2-9 EC50 determinations. How it is done:
The murine ES cell line used was E14-Sx1-16C, which has a targeted mutation in the Sox1 gene, a neuroectodermal marker, that offers G418 resistance when the Sox1 gene is expressed (Stem Cell Sciences). ES cells were maintained undifferentiated as previously described (Roach). […] ES cells were plated on gelatin-coated dishes (BD Biosciences), the media was changed daily and the cells were dissociated with 0.05% Trypsin EDTA (Invitrogen) every other day.
Embryoid Body Formation: Prior to embryoid body (EB) formation the ES cells were weaned from FBS onto Knockout Serum Replacement (KSR) (Invitrogen). To form EBs, ES cells were dissociated into a single cell suspension, then 3×10^6 cells were plated in bacteriology dishes (Nunc 4014) and grown as a suspension culture in NeuroEB-I medium that consisted of Knockout™ D-MEM (Invitrogen), supplemented with 10% KSR (Invitrogen), 0.2 mM L-Glutamine (Invitrogen), 0.1 mM MEM non-essential amino acids (Invitrogen), 30 μg/ml Gentamicin (Invitrogen), 1000 u/ml ESGRO (Chemicon), 0.1 mM 2-Mercaptoethanl (Sigma) and 150 ng/ml Transferrin (Invitrogen). The plates were put on a Stovall Belly Button shaker in an atmospheric oxygen incubator. The media was changed on day 2 of EB formation with NeuroEB-I and on day 4 with NeuroEB-II (NeuroEB-I plus 1 μg/ml mNoggin [R&D Systems]).
Neuronal Precursor Selection and Expansion: On day 5 of EB formation, EBs were dissociated with 0.05% Trypsin EDTA, and 4×10^6cells/100 mm dish were plated on Laminin coated tissue culture dishes in Neuroll-G418 medium that consisted of a base medium of a 1:1 mixture of D-MEM/F12 supplemented with N2 supplements and NeuroBasal Medium supplemented with B27 supplement and 0.1 mM L-Glutamine (all from Invitrogen). The base medium was then supplemented with 10 ng/ml bFGF (Invitrogen), 1 μg/ml mNoggin, 500 ng/ml SHH—N, 100 ng/ml FGF-8b (R&D Systems), 1 μg/ml Laminin and 200 μg/ml G418 (Invitrogen) for selection of neuronal precursors expressing Sox-1. The plates were put in an incubator that contained 2% Oxygen and were maintained in these conditions. During the 6-day selection period, the Neuroll media was changed daily. On day 6, the surviving neuronal precursor foci were dissociated with 0.05% Trypsin EDTA and the cells were plated at a density of 1.5×10^6 cells/100 mm Laminin coated dish in Neuroll-G418 medium. The cells were dissociated every other day for expansion, and prepared for Cryopreservation at passage 3 or 4. The crypreservation medium contained 50% KSR, 10% Dimethyl Sulfoxide (DMSO) (Sigma) and 40% Neurol-G418I medium. Neuronal precursors were crypreserved at a concentration of 4×10^6 cells/ml and 1 ml/cryovial in a controlled rate freezer overnight then transferred to an ultra-low freezer or liquid nitrogen for long-term storage.
Neuronal Differentiation: Cryopreserved ES cell-derived neuronal precursors were thawed by the rapid thaw method in a 37-degree water-bath. The cells were transferred from the cryovial to a 100 mm Laminin coated tissue culture dish that already contained Neuroll-G418 that had been equilibrated in a 2% Oxygen incubator. The media was changed with fresh Neuroll-G418 the next day. The cells were dissociated every other day as described above for expansion to generate enough cells to plate for the screen. For the screen, the cells were plated into 384-well poly-d-lysine coated tissue culture dishes (BD Biosciences) by the automated SelecT at a cell density of 6K cells/well in differentiation medium Neurolll that contained a 4:1 ratio of the NeuroBasalMedium/B27:D-MEM/F12/N2 supplemented with 1 μM cAMP (Sigma), 200 μM Ascorbic Acid (Sigma), 1 μg/ml Laminin (Invitrogen) and 10 ng/ml BDNF (R&D Systems). The plates were put in an incubator with 2% Oxygen and allowed to complete the differentiation process for 7 days. The cells could then be used over a 5-day period for the high throughput screen.
On the day of the assay, the FLIPR assay may be performed using the following methods: […]
`CC(C)S(=O)(=O)N[C@H]1COCC[C@H]1c1ccc(-c2ccc(C#N)s2)cc1` [Example 59, N-{(3R,4S)-4-[4-(5-cyano-2-thienyl)phenyl]tetrahydro-2H-pyran-3-yl}propane-2-sulfonamide]: the EC50 is 2.1 µM.
Then `CC(C)S(=O)(=O)N[C@@H]1COCC[C@@H]1c1ccc(-c2ccc(C#N)cc2)cc1` [Example 60, N-[(3S,4R)-4-(4′-cyanobiphenyl-4-yl)tetrahydro-2H-pyran-3-yl]propane-2-sulfonamide], with over 31.6 µM; and `CC(C)S(=O)(=O)N[C@H]1COCC[C@H]1c1ccc(-c2ccc(C#N)cc2)cc1` [Example 61, N-[(3R,4S)-4-(4′-cyanobiphenyl-4-yl)tetrahydro-2H-pyran-3-yl]propane-2-sulfonamide], with over 31.6 µM.
In the case of `CCOc1ccccc1-c1ccc([C@H]2CCOC[C@H]2NS(=O)(=O)C(C)C)cc1` [Example 62, N-[(3S,4R)-4-(2′-ethoxybiphenyl-4-yl)tetrahydro-2H-pyran-3-yl]propane-2-sulfonamide] it was over 31.6 µM; in that of `CCOc1ccccc1-c1ccc([C@@H]2CCOC[C@@H]2NS(=O)(=O)C(C)C)cc1` [Example 63, N-[(3R,4S)-4-(2′-ethoxybiphenyl-4-yl)tetrahydro-2H-pyran-3-yl]propane-2-sulfonamide], 0.669 µM.
